# Data from patent publication US8853248B2, “(1,2,3-triazolyl)sulfonyl derivatives” (priority 2012, dated 2014).
# How the values were obtained:
# [1] = tested on: adjuvant-induced arthritis; format: in vivo, rat (male Lewis rats); conditions: 30 mg/kg daily by intubation, 7 treatment days; day 28 minus day 21; micronized compound; standard deviation in parentheses
# Experimental: As mentioned earlier, the compounds of formula (1) and pharmaceutically acceptable salts of compounds of formula (1) are useful in the treatment or prevention of inflammations. For example, they can be used as anti-inflammatory agents in the treatment of inflammatory joint diseases, such as arthritis, and in other diseases where inflammation is the inherent cause.
# The adjuvant was prepared by homogenizing 170 mg of heat-killed and dried mycobacterium tuberculosis (Difco) in 22.7 mL of ‘Incomplete Freund's Adjuvant’ (ICFA, Difco). Male Lewis rats with body weights of 130-150 g were injected i.d. at the base of the tail with 0.1 ml of adjuvant. The non-diseased animals received 0.1 mL of ICFA i.d. The animals were housed individually and received feed and water ad libitum. The thus-induced arthritis was allowed to develop without treatment during 21 days. On day 21 the body weight of each animal was determined. At the same time, the volumes of the two hind paws of each animal were measured by immersing the paws in an aqueous plethysmograph up to the height of the lateral malleolus. […] Paw volumes and body weight were recorded diurnally. At the end of the treatment period (day 28), body weights and volumes of the hind paws were again determined. The changes over the treatment period were calculated. […] Subsequently, the animals were sacrificed and the liver weights recorded. […]
# ovine COX-1 = molecular target: T1, ovine COX-1 (Ovis aries, UniProt P05979); assay: COX activity assay (Cayman colorimetric kit), COX-1; format: biochemical; conditions: at a level of 300 μM; purified enzyme, peroxidase activity read at 590 nm
# T1 construct: purchased Cayman Chemicals
# T1 sequence (P05979 25-600): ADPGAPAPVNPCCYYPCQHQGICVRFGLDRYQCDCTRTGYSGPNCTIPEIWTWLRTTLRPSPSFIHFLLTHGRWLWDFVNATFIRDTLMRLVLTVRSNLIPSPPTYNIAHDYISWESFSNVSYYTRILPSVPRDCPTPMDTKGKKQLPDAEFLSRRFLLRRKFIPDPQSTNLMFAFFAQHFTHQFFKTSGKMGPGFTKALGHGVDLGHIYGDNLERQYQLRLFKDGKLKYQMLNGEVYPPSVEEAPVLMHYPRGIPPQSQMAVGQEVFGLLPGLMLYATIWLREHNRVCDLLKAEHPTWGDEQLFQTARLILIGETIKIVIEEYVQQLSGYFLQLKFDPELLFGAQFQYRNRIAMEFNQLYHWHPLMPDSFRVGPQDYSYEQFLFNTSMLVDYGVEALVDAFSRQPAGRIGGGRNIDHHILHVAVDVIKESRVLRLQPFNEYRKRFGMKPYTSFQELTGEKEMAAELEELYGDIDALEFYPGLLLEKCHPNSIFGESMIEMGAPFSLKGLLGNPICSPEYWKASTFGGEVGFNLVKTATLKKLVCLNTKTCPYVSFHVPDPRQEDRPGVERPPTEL
# Experimental: (§1) COX activity was measured using an assay kit obtained from Cayman Chemicals in accord with the instruction manual of the manufacturer “COX Activity Assay, Catalog No. 760151, Colorimetric Assay for the Determination of COX Activity.” The enzyme activity was determined by the peroxidase activity of cyclooxygenases on arachidonic acid and monitored colorimetrically at 590 nm by the appearance of oxidized N,N,N′,N′-tetramethyl-p-phenylenediamine. Both ovine COX-1 and human recombinant COX-2 were obtained from Cayman Chemicals.
# human recombinant COX-2 = molecular target: T2, human recombinant COX-2 (Homo sapiens, UniProt P35354); assay: COX activity assay (Cayman colorimetric kit), COX-2; format: biochemical; conditions: purified enzyme, peroxidase activity read at 590 nm
# T2 construct: purchased Cayman Chemicals
# T2 sequence (P35354 18-604): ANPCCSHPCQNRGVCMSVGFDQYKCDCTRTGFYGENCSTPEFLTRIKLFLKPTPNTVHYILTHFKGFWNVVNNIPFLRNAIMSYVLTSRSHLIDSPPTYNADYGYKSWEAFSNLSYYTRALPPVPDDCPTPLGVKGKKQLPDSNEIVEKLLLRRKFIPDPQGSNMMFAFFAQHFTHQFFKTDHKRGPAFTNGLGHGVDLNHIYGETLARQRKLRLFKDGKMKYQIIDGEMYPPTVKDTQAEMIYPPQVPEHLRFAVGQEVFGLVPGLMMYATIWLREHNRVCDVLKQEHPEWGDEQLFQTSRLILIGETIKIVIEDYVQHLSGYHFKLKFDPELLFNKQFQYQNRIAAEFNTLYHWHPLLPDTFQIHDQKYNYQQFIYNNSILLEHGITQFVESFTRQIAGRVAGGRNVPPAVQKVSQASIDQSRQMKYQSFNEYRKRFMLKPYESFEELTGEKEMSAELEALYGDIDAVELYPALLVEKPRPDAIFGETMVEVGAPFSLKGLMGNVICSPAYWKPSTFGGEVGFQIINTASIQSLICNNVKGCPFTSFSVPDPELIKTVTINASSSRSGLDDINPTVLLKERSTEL
# Experimental: as §1
smiles,measurement,setting,value
"CNS(=O)(=O)c1nn[nH]c1-c1cc(C(C)(C)C)c(O)c(C(C)(C)C)c1 [Compound 1i, 5-(3,5-di-tert-butyl-4-hydroxy-phenyl)-N-methyl-1H-triazole-4-sulfonamide]",Volume change of left paw,[1],−0.73 (0.08) mL
same,Volume change of right paw,[1],−0.63 (0.11) mL
same,effect on COX-1 activity,ovine COX-1,no effect
same,IC50,human recombinant COX-2,68 µM
